The record followed here is paper PMC4567410 (Virology, 2015).

In one data set the test system is HIV-1Ba-L. The experiment in a line: HIV-1 Ba-L replication in PBMCs. The format is cell-based. To be noted: Human immunodeficiency virus 1, PBMC, 168 h.
The subject of another data set is SupT1 T cells. The experiment in a line: Cytotoxicity in SupT1 T cells. To be noted: concentrations greater than 125 nM.
Data set [1] has as its system HIV-1NL4-3. Briefly: HIV-1NL4-3 replication in SupT1. Type of data set: cell-based. The following applies: SupT1 T cells lacking A3G, 62.5 and 125 nM.
A further data set relates to H9 cells. Briefly: Cytotoxicity in H9 T cells. To be noted: concentrations greater than 125 nM.
Data set [2] relates to HIV-1NL4-3. Briefly: HIV-1NL4-3 replication in H9. The format is cell-based. The following applies: H9 cells expressing A3G, 62.5 and 125 nM.
A further data set deals with Vif-CBFβ interaction (Human immunodeficiency virus type 1 group M subtype B, UniProt P12504). The format is cell-based. To be noted: unpublished preliminary co-immunoprecipitation experiments.
Sequence of Vif-CBFβ interaction (P12504 whole entry): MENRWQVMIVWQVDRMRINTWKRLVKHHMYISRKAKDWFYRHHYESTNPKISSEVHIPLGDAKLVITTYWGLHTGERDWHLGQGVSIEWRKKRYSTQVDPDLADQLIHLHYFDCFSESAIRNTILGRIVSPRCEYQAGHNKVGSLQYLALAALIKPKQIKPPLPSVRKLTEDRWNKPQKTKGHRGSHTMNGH
Data set [3] relates to HIV-1NL4-3. Briefly: HIV-1NL4-3 spreading infection in CEM-SS cells. The format is cell-based. To be noted: CEM-SS cells (very low A3G); 312.5, 625, 1250 nM.
The test system of data set [4] is Vif. Briefly: Vif protein stability in transfected 293T cells, CHX time course. The format is cell-based, HIV-1. The following applies: 1250 nM 36 h, then CHX.
The subject of data set [5] is HIV-1NL4-3. The experiment in a line: HIV-1NL4-3 spreading infection in CEM cells. Type of data set: cell-based. The following applies: CEM cells (high A3G); 312.5, 625, 1250 nM; 3, 6, 9 days.
For data set [6], the system named is Vif. Briefly: Western blot of Vif in HIV-1 infected CEM cell lysates. To be noted: infected CEM cells, 1250 nM. Background: In western blotting, separated proteins are transferred to a membrane and probed.
Data set [7] deals with VSV-G pseudotyped NL4-3GFPΔEnv viruses. Type of data set: cell-based, HIV-1.
Data set [8] concerns A3G. To be noted: infected CEM cells, 1250 nM, 6 days post infection.
The subject of data set [9] is A3G. The format is cell-based, human. The following applies: for effect on A3G protein levels: absence of redoxal treatment.
For data set [10], the system named is VSV-G pseudotyped NL4-3GFPΔEnv viruses. Type of data set: cell-based, HIV-1. This is another data set of the same source.
The next data set has as its system HIV-1 91US001. The experiment in a line: HIV-1 91US001 replication in PBMCs. The format is cell-based. The following applies: HIV-1 isolate 91US001 in PBMCs, 7 days, RT assay.
The target of the next data set is Vif-Cul5 interaction (Human immunodeficiency virus type 1 group M subtype B, UniProt P12504). The experiment in a line: Co-immunoprecipitation of Vif and Cul5 from 293T cells. The format is cell-based. The following applies: 1250 nM, 40 h.
Sequence of Vif-Cul5 interaction (P12504 whole entry): as above
The next data set has as its system HIV-1 89BZ167. The experiment in a line: HIV-1 89BZ167 replication in PBMCs. Type of data set: cell-based. The following applies: HIV-1 isolate 89BZ167 in PBMCs, 7 days, RT assay.

By pIC50 is commonly meant −log10 of the IC50, conventionally taken in molar units. A higher pIC50 goes with a small IC50.

The structures appear in SMILES notation. pIC50: −log10 of the molar value. Like-named read-outs stand apart in the source and are kept apart here.

For the molecule `COC(=O)c1ccc(O)c2nc3c(C=O)c(O)cc(O)c3nc12` [lomofungin], the pIC50 in the data set with HIV-1Ba-L was 7.15. Moreover, the cytotoxicity entry in the data set with SupT1 T cells and in the data set with H9 cells was “significant cytotoxicity” throughout. Further, the antiviral activity result in the data set with HIV-1NL4-3 [1] was “not in SupT1 T cells”; in the data set with HIV-1NL4-3 [2], “strong antiviral activity”.
In the case of `COc1cc(-c2ccc(Nc3ccccc3C(=O)O)c(OC)c2)ccc1Nc1ccccc1C(=O)O` [redoxal], the “effect on Vif-CBFβ interaction” value at Vif-CBFβ interaction is given as “did not disrupt”. Besides, the “inhibition of viral replication” value in the data set with HIV-1NL4-3 [3] was “not CEM-SS cells”; in the data set on HIV-1NL4-3 [5], “inhibited viral replication in a dose-dependent manner”. Also, in the data set on Vif [4], the “effect on Vif protein stability” value is given as “no significant effect”. In addition, the Vif protein levels result with Vif [6] is given as “reduced Vif protein levels”. Besides, the virus production entry in data set [7] is listed as “inhibited virus production”. For the same molecule, the A3G protein levels result is “modest increase” in the data set on A3G [8] and “increased” with A3G [9]. For the same molecule, the “steady-state levels of A3G protein in CHX time course” value with A3G [9] (293T cells with A3G-3xHA and pNL4-3GFPΔEnv, 1250 nM 36 h, then CHX 4 h) is given as “stabilized”. For the same molecule, the “increase of A3G protein levels” value with A3G [9] (virus producer 293T cells expressing HIV-1 Vif, 1250 nM) was “approximately 50%”. The decrease in infectivity result in [10] is listed as “approximately 50%”. The pIC50 in the data set on HIV-1 91US001 was 5.76; in the data set with HIV-1 89BZ167, 6.23. In addition, the “effect on Vif-Cul5 interaction” value at Vif-Cul5 interaction was “no effect”.
On to `O=c1ccn([C@@H]2O[C@H](CO)[C@@H](O)[C@H]2O)c(=O)[nH]1` [uridine], for which the “effect on A3G protein levels” value in the data set on A3G [9] is “no significant effect”.
The same measure, in the same setting: next, `O=C(O)c1cc(=O)[nH]c(=O)[nH]1` [orotate]: “no significant effect”.
